Data: patent publication US20120122923A1, “DUAL MOLECULES CONTAINING A PEROXIDE DERIVATIVE, THEIR SYNTHESIS AND THERAPEUTIC USES” (SANOFI-AVENTIS, priority 2006, published 2012)
Read-outs that look alike come from different tables or passages of the source.

Key:
[1] = tested on: P. falciparum FcB1-Columbia strain; test: Chemosensitivity test (radioactive micromethod, tritiated hypoxanthine incorporation), FcB1-Columbia strain; type: cell-based; conditions: Plasmodium falciparum, read-out: IC50 (concentration required to inhibit parasite growth by 50%)
Description: (§1) Strains of P. falciparum were cultivated continuously using Trager and Jensen's method (Science, 1976, 193, 673-675): the parasites were maintained in human red blood corpuscles (O±), diluted to a blood parasite level of 2% in RPMI 1640 medium supplemented with 25 mM Hepes+24 mM NaHCO3+2 mM L-glutamine and complemented with 5% human serum from all groups.
(§2) The parasites were incubated at 37° C., in a moist atmosphere and 5% CO2.
The antimalarial activity tests were carried out using the radioactive micromethod of Desjardins et al. (Antimicrob. Agents Chemother., 1979, 16, 710-718). Each molecule was tested in triplicate. The tests were carried out in 96 well microplates. The P. falciparum strains were cultured in RPMI 1640 solutions complemented with 5% human serum with haematocrit at 2% and a blood parasite level of 1.5%. For each test, the parasites were incubated with decreasing concentrations of test compounds for 48 h at 37° C., in a moist atmosphere and 5% CO2. The artemisinin and chloroquine diphosphate were used as reference molecules. The first dilution of the test compounds was carried out at 1 mg/ml in dimethylsulphoxide. […] Parasite growth was measured by the incorporation of tritiated hypoxanthine (added 24 h after beginning exposure to the test compound) and compared with the incorporation in the absence of the test compound (taken as 100%). […]

[2] = tested on: P. falciparum FcM29-Cameroon strain; test: Chemosensitivity test (radioactive micromethod, tritiated hypoxanthine incorporation), FcM29-Cameroon strain; type: cell-based; conditions: Plasmodium falciparum, 48 h, read-out: IC50 (concentration required to inhibit parasite growth by 50%)
Description: as §1, §2
The antimalarial activity tests were carried out using the radioactive micromethod of Desjardins et al. (Antimicrob. Agents Chemother., 1979, 16, 710-718). Each molecule was tested in triplicate. The tests were carried out in 96 well microplates. The P. falciparum strains were cultured in RPMI 1640 solutions complemented with 5% human serum with haematocrit at 2% and a blood parasite level of 1.5%. For each test, the parasites were incubated with decreasing concentrations of test compounds for 48 h at 37° C., in a moist atmosphere and 5% CO2. The artemisinin and chloroquine diphosphate were used as reference molecules. The first dilution of the test compounds was carried out at 1 mg/ml in dimethylsulphoxide. The dilution series for the successive daughter solutions was also prepared in dimethylsulphoxide. Each daughter dilution was then diluted to 1/50th in RPMI 1640 complemented with 5% human serum, all of the dilutions being made at 37° C. Said dilutions were then added to the parasites in culture in the microplates. After adding the test compound, the parasites were cultured in RPMI 1640 with 5% human serum and 1% dimethylsulphoxide. Parasite growth was measured by the incorporation of tritiated hypoxanthine (added 24 h after beginning exposure to the test compound) and compared with the incorporation in the absence of the test compound (taken as 100%). The values for IC50 (concentrations required to inhibit parasite growth by 50%) were determined by plotting the percentage inhibition as a function of the logarithm of the dose using GraphPad Prism 4® processing software (GraphPad software, Inc., 5755 Oberlin Drive, #110, San Diego, Calif. 92121, USA).

[3] = Metabolic stability on human hepatic microsomes; type: in vitro ADME; conditions: for Percentage metabolization: human hepatic microsomes 1 mg/ml, 5 μM substrate, 1 mM NADPH, 20 minutes at 37° C., degradation with respect to T0
Description: These experiments were carried out on human hepatic microsomes in the presence of NADPH cofactor, necessary for the activity of the principal enzymes, namely cytochromes P-450 (CYP) and flavine mono-oxygenases (FMO). […] After 20 minutes, the reaction was stopped by adding 1 volume of acetonitrile. The supernatant was then removed after centrifuging (speed 3000 g for 10 minutes at 4° C.). The supernatant was analysed by high performance liquid chromatography coupled to a mass spectrometer (LC-MS/MS) and the degradation of each of the test compounds was calculated as a percentage (%) with respect to T0. The microsomal fractions were prepared from human hepatic tissue deriving from at least 12 different donors and frozen at −80° C. The tissue was defrosted then dried, weighed and cut into thin sheets before homogenizing. The tissue was homogenized using a Potter-Elvejheim type homogenizer at +4° C. The tissue homogenates were then centrifuged at 10000 g for 30 minutes at +4° C. […] The residue was finally taken up into suspension in a final volume of KH2PO4/K2HPO4 buffer containing 20% (v/v) of glycerol (1 ml for 2 grams of tissue). The hepatic microsomal fractions obtained were divided into aliquots (500 μl), frozen rapidly in liquid nitrogen and kept frozen at −80° C. until use. concentration of microsomal proteins: 1 mg/ml; concentration of BSA (bovine serum albumin (BSA): 1 mg/ml; concentration of substrate (test compound): 5 μM; CYP and FMO co-factors: 1 mM NADPH; Phosphate buffer (pH 7.4): 10 mM. • The reaction was initiated by adding 1 mM of NADPH and incubating for 20 minutes at 37° C., with stirring. The reaction was stopped by adding 1 volume of cold acetonitrile. • Total incubation volume=300 μl

[4] = FcM29-Cameroon strain (very strongly chloroquine-resistant), in human red blood corpuscles
[5] = human hepatic microsomes, from Table 2

## CN(C)c1ccc2nccc(NC3CCC(NC4CCC5(CC4)OCC(C)(C)OO5)CC3)c2c1 (stereo not drawn) [PA1253, N-(3,3-dimethyl-1,2,5-trioxa-spiro[5.5]undec-9-yl)-N′-(6-dimethylamino-quinolin-4-yl)-cyclohexane-trans-1,4-diamine]
other
  melting point: 193 °C (dec.)

## CC1(C)COC2(CCC(NC3CCC(Nc4ccnc5cc(C(F)(F)F)ccc45)CC3)CC2)OO1 (stereo not drawn) [PA1252, N-(3,3-dimethyl-1,2,5-trioxa-spiro[5.5]undec-9-yl)-N′-(7-trifluoromethyl-quinolin-4-yl)-cyclohexane-trans-1,4-diamine]
other
  melting point: 166.5 °C (dec.)

## CC1(C)COC2(CCC(NC3CCC(Nc4ccnc5ccc(OC(F)(F)F)cc45)CC3)CC2)OO1 (stereo not drawn) [PA1305, N-(6-trifluoromethoxy-quinolin-4-yl)-N′-(3,3-dimethyl-1,2,5-trioxa-spiro[5.5]undec-9-yl)-cyclohexane-trans-1,4-diamine]
other
  melting point: 165 °C (dec.)

## CCN(CC)CCCC(C)Nc1ccnc2cc(Cl)ccc12 (centres unmarked) [chloroquine, reference compound]
[1]; FCB1, 48 h
  IC50: 66 nM
[2]
  IC50: 258 nM
[3]
  Percentage metabolization: 29%

## CC1OOC2(CCC(NC3CCC(Nc4ccnc5cc(Cl)ccc45)CC3)CC2)OC1C (stereo not drawn) [PA1255, N-(7-chloro-quinolin-4-yl)-N′-(3,4-dimethyl-1,2,5-trioxa-spiro[5.5]undec-9-yl)-cyclohexane-trans-1,4-diamine]
other
  melting point: 166 °C (dec.)

## Clc1ccc2c(NCCN3CCC4(CC3)OCC3(CCCCC3)OO4)ccnc2c1 [PA1110, reference compound]
[3]
  Percentage metabolization: 98%

## CC1(C)COC2(CCC(N[C@@H]3CCCC[C@H]3Nc3ccnc4cc(Cl)ccc34)CC2)OO1 (stereo partly drawn) [PA1188, N-(7-chloro-quinolin-4-yl)-N′-(3,3-dimethyl-1,2,5-trioxa-spiro[5.5]undec-9-yl)-cyclohexane-trans-1,2-diamine]
[2]; [4]
  IC50: 4 nM

## CC(C)C1=C[C@H]2OC3(CCC(NCCNc4ccnc5cc(Cl)ccc45)CC3)OO[C@H]2CC1 (some centres unmarked) [DU1302, reference compound]
[3]
  Percentage metabolization: 95-100%

## CC1(C)COC2(CCC(NC3CCC(Nc4ccnc5cc(Cl)ccc45)CC3)CC2)OO1 (stereo not drawn) [PA1103, N-(7-chloro-quinolin-4-yl)-N′-(3,3-dimethyl-1,2,5-trioxa-spiro[5.5]undec-9-yl)-cyclohexane-trans-1,4-diamine]
[2]; [4]
  IC50: 6 nM
[3]
  Percentage metabolization: 11%
[3]; [5]
  times less degraded than chloroquine: about 3 times
  times less degraded than the prior art compounds: about 10 times
[3]; in words
  stability in human hepatic microsomes compared with the other test compounds: much more stable
other
  melting point: 176 °C (dec.)

## C[C@@H]1CC[C@H]2[C@@H](C)C(=O)O[C@@H]3O[C@@]4(C)CC[C@@H]1[C@]32OO4 [artemisinin, reference compound]
[1]; FcB1-Columbia strain (moderately chloroquine-resistant), in human red blood corpuscles, 48 h
  IC50: 11 nM
[2]; [4]
  IC50: 5 nM

## CC1(C)COC2(CCC(NC3CCC(Nc4cc(C(F)(F)F)nc5c(C(F)(F)F)cccc45)CC3)CC2)OO1 (stereo not drawn) [PA1251, N-(2,8-bis-trifluoromethyl-quinolin-4-yl)-N′-(3,3-dimethyl-1,2,5-trioxa-spiro[5.5]undec-9-yl)-cyclohexane-trans-1,4-diamine]
other
  melting point: 168 °C (dec.)

## C[C@H]1[C@H](OC(=O)CCC(=O)O)O[C@@H]2O[C@@]3(C)CC[C@H]4[C@H](C)CC[C@@H]1[C@@]24OO3 [artesunate, reference compound]
[3]
  Percentage metabolization: 100%
